Data published in US9586921B2, “Burdock fruit extract containing arctigenin at high content and process for producing same” (Kracie Pharma, Ltd., priority 2009, dated 2017).

Assays:
CAPAN-1 = test: Cytotoxic evaluation using the cultured cell (WST-8 viability), CAPAN-1; assay type: cell-based, human; settings: CAPAN-1, DMEM (normal nutritional condition) and NDM (nutrient starvation)
Description: (§1) [Test 2] (Cytotoxic Evaluation Using the Cultured Cell)
(§2) The pancreas cancer cell line, CAPAN-1, PANC-1 and PSN-1 were plated to the 96 well plate, and they were pre-cultured in DMEM culture media in 37° C., 5% CO2 and 95% Air under normal nutritional condition for 24 hours. After washing these cells with PBS, the extracts which were extracted by the different methods in DMEM culture media (ending D in the graph) which is normal nutritional condition and in NDM culture media (ending I in the graph) which are a nutrient starvation condition (Example 2 and comparative example 2 in the graph) were added to each well including constant concentration of arctigenin, and incubated for 24 hours. The cells were washed in PBS again, 100 μL of DMEM culture media including 10% WST-8 was added to be reacted for two hours and measured the absorbance of 450 nm by the microplate reader, and viability of these cells were evaluated.

PANC-1 = test: Cytotoxic evaluation using the cultured cell (WST-8 viability), PANC-1; assay type: cell-based; settings: PANC-1, DMEM (normal nutritional condition) and NDM (nutrient starvation)
Description: as §1, §2

PSN-1 = test: Cytotoxic evaluation using the cultured cell (WST-8 viability), PSN-1; assay type: cell-based, human; settings: PSN-1, DMEM (normal nutritional condition) and NDM (nutrient starvation)
Description: as §1, §2

[1] = tested on: pancreas cancer cell line PANC-1; settings: PANC-1, undernutrition condition; non-patent document 1; cited from earlier work
CAPAN-1 Xenografts = test: Evaluation of the anticancer activity in the model animal of tumor (CAPAN-1 Xenografts); assay type: in vivo, nude mouse; settings: CAPAN-1 xenograft, 50 μg per mouse by mouth five times a week, one month after beginning of dosage, FIG. 5
Description: (§3) [Test 3] (the Evaluation of the Anticancer Activity in the Model Animal of Tumor) (Method for Test) The subcutaneous dorsales of nude mouse (BALB-cAJ nu/nu; Nippon Kurea) which is the donor was inoculated the human pancreas cancer cell line, CAPAN-1 or PSN-1, and the obtained tumor mass of the donor mouse was transplanted into the subcutaneous dorsales of the recipient mouse to generate the model animal of tumor. […] The anticancer activity was evaluated by measuring the size of the tumor mass of subcutaneous dorsales sequentially.

PSN-1 Xenografts = test: Evaluation of the anticancer activity in the model animal of tumor (PSN-1 Xenografts); assay type: in vivo, nude mouse; settings: PSN-1 xenograft, 50 μg per mouse by mouth five times a week, one month after beginning of dosage, FIG. 6
Description: as §3

SMILES | anticancer activity (CAPAN-1) | anticancer activity (PANC-1) | anticancer activity (PSN-1) | effect in screen for release of viability of tumor cells in the undernutrition condition [1] | antitumor effect (size of the tumor mass) (CAPAN-1 Xenografts) | antitumor effect (size of the tumor mass) (PSN-1 Xenografts)
COc1ccc(C[C@H]2COC(=O)[C@@H]2Cc2ccc(O[C@@H]3O[C@H](CO)[C@@H](O)[C@H](O)[C@H]3O)c(OC)c2)cc1OC [arctiin] | in neither condition | in neither condition | in neither condition | – | – | –
COc1cc(C[C@H]2C(=O)OC[C@@H]2Cc2ccc(OC)c(OC)c2)ccc1O [arctigenin] | – | – | – | effective | antitumor effect was also obtained | antitumor effect was also obtained
